Reference: patent publication US9615577B2, “Herbicidally active cyclic dione compounds, or derivatives therefor, substituted by a phenyl which has an alkynyl-containing substituent” (Syngenta Limited, priority 2012, dated 2017)

Legend:
Format in all cases: in vivo
[1] = test system: Alopecurus myosuroides (ALOMY); assay: Test 1A glasshouse assay for herbicidal activity, post-emergence; details: 312 h, evaluated after 13 days, read-out: percentage phytotoxicity ALOMY
Outline: (§1)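 Damage is rated by eye as percent phytotoxicity on a 0–100 scale, 13 days after treatment. Compound is sprayed in acetone/water (50:50) with 0.5% Tween 20 onto pots one day (pre-emergence) or eight days (post-emergence) after sowing, with plants kept at 24/16 °C and 14 h light.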

[2] = test system: Amaranthus retroflexus (AMARE); assay: as above; details: 312 h, evaluated after 13 days, read-out: percentage phytotoxicity AMARE
Outline: as §1

[3] = test system: Echinochloa crus-galli (ECHCG); assay: as above; details: 312 h, evaluated after 13 days, read-out: percentage phytotoxicity ECHCG
Outline: as §1

[4] = test system: Abutilon theophasti Medik. (ABUTH); assay: as above; details: 312 h, evaluated after 13 days, read-out: percentage phytotoxicity ABUTH
Outline: as §1

[5] = test system: Lolium perenne (LOLPE); assay: Test 1B glasshouse assay for herbicidal activity, pre-emergence; details: 480 h, 250 g/ha, 20 DAA, read-out: percentage phytotoxicity LOLPE
Procedure: (§2) Seeds of a variety of monocotyledonous and dicotyledonous test plants are sown in standard soil in pots. The plants are cultivated for one day (for pre-emergence) or for about 12 days (range=10-13 days) (for post-emergence) under controlled conditions in a glasshouse (warm climate species at 24/18° C., cool climate species at 20/16° C., both at day/night; 16 hours light; 65% humidity).
(§3) An “instant formulation”, known as the “IF50”, containing 50 g/liter (i.e. 5% w/v) of the “technical” (i.e. unformulated) active ingredient is prepared by dissolving the active ingredient in a mixture of organic solvents and emulsifier, details of which are provided in the Table below. This IF50 is then mixed with a small, variable amount of acetone to aid dissolution, before addition of a 0.2% v/v aqueous solution of the adjuvant X-77 (which is a mixture of alkyl aryl polyoxyethylene glycols and free fatty acids in isopropanol, CAS Registry number 11097-66-8), as the aqueous diluent, to form an aqueous spray solution which contains a predetermined concentration of the active ingredient (which varies depending on the application rate of the active ingredient to the plants) and 0.2% v/v of the adjuvant X-77. This aqueous spray solution is then sprayed onto the plants, after one day's cultivation (for pre-emergence) or after about 12 days' cultivation (for post-emergence).
(§4) The test plants are then grown on, in a glasshouse (greenhouse) under controlled conditions (at either 24/18° C. or 20/16° C. (day/night) as mentioned above; 16 hours light; 65% humidity) and are watered twice daily. Either 15 days after application of the herbicide (15 DAA) (for post-emergence), or 20 days after application of the herbicide (20 DAA) (for pre-emergence), the test plants are evaluated visually, and an assessed percentage phytotoxicity score is given for each herbicidal application on each plant species (where 100%=total damage to plant; 0%=no damage to plant).
(§5) Cool climate (“cool season”) grassy monocotyledonous weeds: Alopecurus myosuroides (ALOMY), Avena fatua (AVEFA), Lolium perenne (LOLPE).

[6] = test system: Alopecurus myosuroides (ALOMY); assay: as above; details: 480 h, 250 g/ha, 20 DAA, read-out: percentage phytotoxicity ALOMY
Procedure: as §2, §3, §4, §5

[7] = test system: Avena fatua (AVEFA); assay: as above; details: 480 h, 250 g/ha, 20 DAA, read-out: percentage phytotoxicity AVEFA
Procedure: as §2, §3, §4, §5

[8] = test system: Alopecurus myosuroides (ALOMY); assay: Test 1A glasshouse assay for herbicidal activity, pre-emergence; details: 312 h, evaluated after 13 days, read-out: percentage phytotoxicity ALOMY
Outline: as §1

[9] = test system: Amaranthus retroflexus (AMARE); assay: as above; details: 312 h, evaluated after 13 days, read-out: percentage phytotoxicity AMARE
Outline: as §1

[10] = test system: Echinochloa crus-galli (ECHCG); assay: as above; details: 312 h, evaluated after 13 days, read-out: percentage phytotoxicity ECHCG
Outline: as §1

[11] = test system: Setaria faberi (SETFA); assay: as above; details: 312 h, evaluated after 13 days, read-out: percentage phytotoxicity SETFA
Outline: as §1

[12] = test system: Digitaria sanguinalis (DIGSA); assay: Test 1B glasshouse assay for herbicidal activity, pre-emergence; details: 480 h, 250 g/ha, 20 DAA, read-out: percentage phytotoxicity DIGSA
Procedure: as §2, §3, §4
(§6) Warm climate (“warm season”) grassy monocotyledonous weeds: Setaria faberi (SETFA), SORVU (Sorghum bicolor (L.) Moench ssp. Bicolor, or Sorghum vulgare Pers.), Digitaria sanguinalis (DIGSA), Echinochloa crus-galli (ECHCG), and Brachiaria plantaginea (BRAPL).

[13] = test system: SORVU (Sorghum bicolor (L.) Moench ssp. Bicolor, or Sorghum vulgare Pers.); assay: as above; details: 480 h, 250 g/ha, 20 DAA, read-out: percentage phytotoxicity SORVU
Procedure: as §2, §3, §4, §6

[14] = test system: Echinochloa crus-galli (ECHCG); assay: as above; details: 480 h, 250 g/ha, 20 DAA, read-out: percentage phytotoxicity ECHCG
Procedure: as §2, §3, §4, §6

[15] = test system: Setaria faberi (SETFA); assay: as above; details: 480 h, 250 g/ha, 20 DAA, read-out: percentage phytotoxicity SETFA
Procedure: as §2, §3, §4, §6

[16] = test system: Brachiaria plantaginea (BRAPL); assay: Test 1B glasshouse assay for herbicidal activity, post-emergence; details: Urochloa plantaginea; for pest or weed control at 125 g/ha: 125 g/ha application rate
Outline: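 Pots of soil were sown and held one day for pre-emergence or about 12 days for post-emergence treatment, then sprayed with an aqueous solution containing 0.2% v/v X-77 adjuvant, prepared from a 50 g/liter IF50 formulation, at rate-dependent concentration. Visual damage scoring followed at 20 or 15 DAA respectively.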

| Structure (SMILES) | pest or weed control at 250 g/ha [1] | pest or weed control at 250 g/ha [2] | pest or weed control at 250 g/ha [3] | pest or weed control at 250 g/ha [4] | pest or weed control at 250 g/ha [5] | pest or weed control at 250 g/ha [6] | pest or weed control at 250 g/ha [7] | pest or weed control at 250 g/ha [8] | pest or weed control at 250 g/ha [9] | pest or weed control at 250 g/ha [10] | pest or weed control at 250 g/ha [11] | pest or weed control at 250 g/ha [12] | pest or weed control at 250 g/ha [13] | pest or weed control at 250 g/ha [14] | pest or weed control at 250 g/ha [15] | pest or weed control at 125 g/ha [16] | also measured |
| --- | --- | --- | --- | --- | --- | --- | --- | --- | --- | --- | --- | --- | --- | --- | --- | --- | --- |
| CC#Cc1cc(Cl)c(C2C(=O)C3CCC(C3)C2=O)c(OC)c1 (stereo not shown) [Compound A-12] | 90 to 100% | 0 to 10% | 100% | 50 to 60% | 100% | 60% | 50% | 100% | 0% | 100% | 100% | 100% | 90% | 100% | 100% | 100% | pest or weed control at 62.5 g/ha ([1]; 62.5 g/ha): 80%; pest or weed control at 62.5 g/ha ([2]; 62.5 g/ha): 0%; pest or weed control at 62.5 g/ha ([3]; 62.5 g/ha): 100%; pest or weed control at 62.5 g/ha ([4]; 62.5 g/ha): 0%; pest or weed control at 62.5 g/ha ([8]; 62.5 g/ha): 90%; pest or weed control at 62.5 g/ha ([9]; 62.5 g/ha): 0%; pest or weed control at 62.5 g/ha ([10]; 62.5 g/ha): 90%; pest or weed control at 62.5 g/ha ([11]; 62.5 g/ha): 100%; pest or weed control at 30 g/ha ([16]; 30 g/ha application rate): 70% |
| CC#Cc1cc(C)c(C2C(=O)CC(c3ccccn3)CC2=O)c(C)c1 (stereo not shown) [Compound A-13] | 100% | 60% | 100% | 80% | 100% | 80% | 30% | 100% | 80% | 100% | 100% | 100% | 80% | 90% | 80% | 100% | pest or weed control at 30 g/ha ([1]; 30 g/ha): 70%; pest or weed control at 30 g/ha ([2]; 30 g/ha): 30%; pest or weed control at 30 g/ha ([3]; 30 g/ha): 80%; pest or weed control at 30 g/ha ([4]; 30 g/ha): 40%; pest or weed control at 30 g/ha ([8]; 30 g/ha): 70%; pest or weed control at 30 g/ha ([9]; 30 g/ha): 100%; pest or weed control at 30 g/ha ([10]; 30 g/ha): 100%; pest or weed control at 30 g/ha ([11]; 30 g/ha): 70% |
